The values that follow come from patent US11207325B2, “Triazolopyrimidine compounds and uses thereof” (Novartis AG, priority 2014, dated 2021).

The subject of the assay is H3K27 methylation in G401 cell. The assay is described as follows: ELISA (H3K27 methylation) assay. The following applies: Homo sapiens, G-401; ELISA Qualified assay (H3K27 methylation); read-out: (c) IC50 (μM), ELISA Qualified. The format is cell-based. From the text:
ELISA (H3K27 Methylation) Assay
(ELISA stands for enzyme-linked immunosorbent assay.)

SMILES strings stand for the structures.

By IC50 is commonly meant the concentration needed to halve the response being measured. Regarding `CN(C)Cc1ccc(-c2cnc(NCc3cccc4c3CCO4)n3cnnc23)cc1` [Example 11, N-((2,3-dihydrobenzofuran-4-yl)methyl)-8-(4-((dimethylamino)methyl)phenyl)-[1,2,4]triazolo[4,3-c]pyrimidin-5-amine], the concentration for half-maximal inhibition (IC50) stood at 0.0144 µM.

As for `CS(=O)(=O)c1ccc(-c2cnc(NCc3cccc4c3CCO4)n3cnnc23)cc1` [Example 12, N-((2,3-dihydrobenzofuran-4-yl)methyl)-8-(4-(methylsulfonyl)phenyl)-[1,2,4]triazolo[4,3-c]pyrimidin-5-amine], the IC50 was 0.0176 µM.

With `c1ccc(-c2cnc(NCc3cccc4c3CCO4)n3cnnc23)cc1` [Example 13, N-((2,3-dihydrobenzofuran-4-yl)methyl)-8-phenyl-[1,2,4]triazolo[4,3-c]pyrimidin-5-amine], the IC50 stood at 0.139 µM. The result for `CC(c1ccc(-c2cnc(NCc3cccc4c3CCO4)n3cnnc23)cc1)N1CCCC1` (stereo not shown) [Example 14, N-((2,3-dihydrobenzofuran-4-yl)methyl)-8-(4-(1-(pyrrolidin-1-yl)ethyl)phenyl)-[1,2,4]triazolo[4,3-c]pyrimidin-5-amine] reads 0.0274 µM; that for `CN(C)S(=O)(=O)c1ccc(-c2cnc(NCc3cccc4c3CCO4)n3cnnc23)cc1` [Example 15, 4-(5-(((2,3-dihydrobenzofuran-4-yl)methyl)amino)-[1,2,4]triazolo[4,3-c]pyrimidin-8-yl)-N,N-dimethylbenzenesulfonamide], 0.0198 µM. `c1cncc(-c2cnc(NCc3cccc4c3CCO4)n3cnnc23)c1` [Example 16, N-((2,3-dihydrobenzofuran-4-yl)methyl)-8-(pyridin-3-yl)-[1,2,4]triazolo[4,3-c]pyrimidin-5-amine]: the IC50 came out at 0.0604 µM. For `CS(=O)(=O)Nc1ccc(-c2cnc(NCc3cccc4c3CCO4)n3cnnc23)cc1` [Example 19, N-(4-(5-(((2,3-dihydrobenzofuran-4-yl)methyl)amino)-[1,2,4]triazolo[4,3-c]pyrimidin-8-yl)phenyl)methanesulfonamide], the IC50 turned out to be 0.0401 µM. The result for `CN1CCN(c2ccc(-c3cnc(NCc4cccc5c4CCO5)n4cnnc34)cn2)CC1` [Example 20, N-((2,3-dihydrobenzofuran-4-yl)methyl)-8-(6-(4-methylpiperazin-1-yl)pyridin-3-yl)-[1,2,4]triazolo[4,3-c]pyrimidin-5-amine] reads 0.0783 µM. The result for `COc1ccc(-c2cnc(NCc3cccc4c3CCO4)n3cnnc23)cn1` [Example 21, N-((2,3-dihydrobenzofuran-4-yl)methyl)-8-(6-methoxypyridin-3-yl)-[1,2,4]triazolo[4,3-c]pyrimidin-5-amine] reads 0.15 µM. For `CN(C)Cc1ccc(-c2cnc(NCc3c(F)ccc4c3CCO4)n3cnnc23)cc1` [Example 23, 8-(4-((dimethylamino)methyl)phenyl)-N-((5-fluoro-2,3-dihydrobenzofuran-4-yl)methyl)-[1,2,4]triazolo[4,3-c]pyrimidin-5-amine], the IC50 amounted to 0.0424 µM. In the case of `Cc1nn(C)c(C)c1-c1cnc(NCc2cccc3c2CCO3)n2cnnc12` [Example 24, N-((2,3-dihydrobenzofuran-4-yl)methyl)-8-(1,3,5-trimethyl-1H-pyrazol-4-yl)-[1,2,4]triazolo[4,3-c]pyrimidin-5-amine], the IC50 turned out to be 0.162 µM. `Cn1cc(-c2cnc(NCc3cccc4c3CCO4)n3cnnc23)cn1` [Example 25, N-((2,3-dihydrobenzofuran-4-yl)methyl)-8-(1-methyl-1H-pyrazol-4-yl)-[1,2,4]triazolo[4,3-c]pyrimidin-5-amine]: the IC50 is 0.406 µM. Consider `CS(=O)(=O)c1ccc(-c2cnc(NCc3cccc4c3CCO4)n3cnnc23)c(F)c1` [Example 26, N-((2,3-dihydrobenzofuran-4-yl)methyl)-8-(2-fluoro-4-(methylsulfonyl)phenyl)-[1,2,4]triazolo[4,3-c]pyrimidin-5-amine], for which the IC50 is 0.0448 µM.

In the case of `CS(=O)(=O)c1cccc(-c2cnc(NCc3cccc4c3CCO4)n3cnnc23)c1` [Example 27, N-((2,3-dihydrobenzofuran-4-yl)methyl)-8-(3-(methylsulfonyl)phenyl)-[1,2,4]triazolo[4,3-c]pyrimidin-5-amine], the IC50 was determined as 0.365 µM. For `CS(=O)(=O)c1ccc(-c2cnc(NCc3cccc4c3CCO4)n3cnnc23)cn1` [Example 28, N-((2,3-dihydrobenzofuran-4-yl)methyl)-8-(6-(methylsulfonyl)pyridin-3-yl)-[1,2,4]triazolo[4,3-c]pyrimidin-5-amine] the value was 0.415 µM; for `O=S(=O)(c1ccc(-c2cnc(NCc3cccc4c3CCO4)n3cnnc23)cc1)C1CCNCC1` [Example 29, N-((2,3-dihydrobenzofuran-4-yl)methyl)-8-(4-(piperidin-4-ylsulfonyl)phenyl)-[1,2,4]triazolo[4,3-c]pyrimidin-5-amine], 0.214 µM; for `Cc1nn(C)cc1-c1cnc(NCc2cccc3c2CCO3)n2cnnc12` [Example 30, N-((2,3-dihydrobenzofuran-4-yl)methyl)-8-(1,3-dimethyl-1H-pyrazol-4-yl)-[1,2,4]triazolo[4,3-c]pyrimidin-5-amine], 0.069 µM.

In the case of `Fc1ccccc1-c1cnc(NCc2cccc3c2CCO3)n2cnnc12` [Example 31, N-((2,3-dihydrobenzofuran-4-yl)methyl)-8-(2-fluorophenyl)-[1,2,4]triazolo[4,3-c]pyrimidin-5-amine], the IC50 stood at 0.0298 µM. For `Clc1ccccc1-c1cnc(NCc2cccc3c2CCO3)n2cnnc12` [Example 32, 8-(2-chlorophenyl)-N-((2,3-dihydrobenzofuran-4-yl)methyl)-[1,2,4]triazolo[4,3-c]pyrimidin-5-amine] the value was 0.115 µM. On to `CS(=O)(=O)Nc1ccc(-c2cnc(NCc3cccc4c3CCO4)n3cnnc23)cc1F` [Example 33, N-(4-(5-(((2,3-dihydrobenzofuran-4-yl)methyl)amino)-[1,2,4]triazolo[4,3-c]pyrimidin-8-yl)-2-fluorophenyl)methanesulfonamide], for which the IC50 was 0.297 µM.

Regarding `OCCn1cc(-c2cnc(NCc3cccc4c3CCO4)n3cnnc23)cn1` [Example 34, 2-(4-(5-(((2,3-dihydrobenzofuran-4-yl)methyl)amino)-[1,2,4]trizaolo[4,3-c]pyrimidin-8-yl)-1H-pyrazol-1-yl)ethanol], the IC50 amounted to 1.95 µM.

With `CN(C)CCc1ccc(-c2cnc(NCc3cccc4c3CCO4)n3cnnc23)cc1` [Example 35, N-((2,3-dihydrobenzofuran-4-yl)methyl)-8-(4-(2-(dimethylamino)ethyl)phenyl)-[1,2,4]triazolo[4,3-c]pyrimidin-5-amine], the IC50 was determined as 0.0334 µM.

On to `Cc1cc(-c2cnc(NCc3cccc4c3CCO4)n3cnnc23)cnc1N1CCN(C)CC1` [Example 36, N-((2,3-dihydrobenzofuran-4-yl)methyl)-8-(5-methyl-6-(4-methylpiperazin-1-yl)pyridin-3-yl)-[1,2,4]triazolo[4,3-c]pyrimidin-5-amine], for which the IC50 came to 0.0683 µM.

In the case of `CS(=O)(=O)c1ccc(-c2cnc(NCc3c(F)ccc4c3CCO4)n3cnnc23)cc1` [Example 37, N-((5-fluoro-2,3-dihydrobenzofuran-4-yl)methyl)-8-(4-(methylsulfonyl)phenyl)-[1,2,4]triazolo[4,3-c]pyrimidin-5-amine], the IC50 stood at 0.0134 µM.

With `OCCOc1ccc(-c2cnc(NCc3cccc4c3CCO4)n3cnnc23)cc1` [Example 38, 2-(4-(5-(((2,3-dihydrobenzofuran-4-yl)methyl)amino)-[1,2,4]triazolo[4,3-c]pyrimidin-8-yl)phenoxy)ethanol], the IC50 is 0.202 µM. As for `CS(=O)(=O)Nc1ccc(-c2cnc(NCc3c(F)ccc4c3CCO4)n3cnnc23)cc1F` [Example 39, N-(2-fluoro-4-(5-(((5-fluoro-2,3-dihydrobenzofuran-4-yl)methyl)amino)-[1,2,4]triazolo[4,3-c]pyrimidin-8-yl)phenyl)methanesulfonamide], the IC50 was 0.0227 µM. `O=S(=O)(NCCO)c1ccc(-c2cnc(NCc3cccc4c3CCO4)n3cnnc23)cc1` [Example 40]: the IC50 is 1.34 µM.

`O=C(c1ccc(-c2cnc(NCc3cccc4c3CCO4)n3cnnc23)cc1)N1CCNCC1` [Example 41, (4-(5-(((2,3-dihydrobenzofuran-4-yl)methyl)amino)-[1,2,4]triazolo[4,3-c]pyrimidin-8-yl)phenyl)(piperazin-1-yl)methanone]: the IC50 was found to be 0.375 µM.

Consider `CN(C)C(=O)c1ccc(-c2cnc(NCc3cccc4c3CCO4)n3cnnc23)cc1` [Example 42, 4-(5-(((2,3-dihydrobenzofuran-4-yl)methyl)amino)-[1,2,4]triazolo[4,3-c]pyrimidin-8-yl)-N,N-dimethylbenzamide], for which the IC50 came to 0.22 µM.

`CN(C)C(=O)c1cccc(-c2cnc(NCc3cccc4c3CCO4)n3cnnc23)c1` [Example 43, 3-(5-(((2,3-dihydrobenzofuran-4-yl)methyl)amino)-[1,2,4]triazolo[4,3-c]pyrimidin-8-yl)-N,N-dimethylbenzamide]: the IC50 stood at 0.247 µM.

In the case of `Fc1ccc2c(c1CNc1ncc(-c3cccnc3)c3nncn13)CCO2` [Example 44, N-((5-fluoro-2,3-dihydrobenzofuran-4-yl)methyl)-8-(pyridin-3-yl)-[1,2,4]triazolo[4,3-c]pyrimidin-5-amine], the IC50 was 0.0097 µM.

`Fc1ccc2c(c1CNc1ncc(-c3ccncc3)c3nncn13)CCO2` [Example 45, N-((5-fluoro-2,3-dihydrobenzofuran-4-yl)methyl)-8-(pyridin-4-yl)-[1,2,4]triazolo[4,3-c]pyrimidin-5-amine]: the IC50 is 0.0086 µM. For the compound `CC(c1ccc(-c2cnc(NCc3c(F)ccc4c3CCO4)n3cnnc23)cc1)N1CCCC1` (stereo not shown) [Example 46, N-((5-fluoro-2,3-dihydrobenzofuran-4-yl)methyl)-8-(4-(1-(pyrrolidin-1-yl)ethyl)phenyl)-[1,2,4]triazolo[4,3-c]pyrimidin-5-amine], the IC50 is 0.0048 µM.

Regarding `Fc1ccncc1-c1cnc(NCc2c(F)ccc3c2CCO3)n2cnnc12` [Example 47, N-((5-fluoro-2,3-dihydrobenzofuran-4-yl)methyl)-8-(4-fluoropyridin-3-yl)-[1,2,4]-triazolo[4,3-c]pyrimidin-5-amine], the IC50 was determined as 0.0103 µM.
